From ChEMBL document CHEMBL5661943, “ASAP - In vitro antiviral effect” (2024)

Assays:
Zika virus = assay: EC50 is reported via analysis of immunofluorescence staining. The assay has been performed by Icahn School of Medicine at Mount Sinai.; assay type: functional, organism-based, Chlorocebus sabaeus, VeroE6/TMPRSS2
dengue virus type 2 = assay: Functional immunofluorescence assay to measure dose dependent changes in antiviral-drug inhibitory efficacy against Dengue virus type 2 Thailand/16681/84 in Vero E6/TMPRSS2 cells (cotreated with P-gp inhibitor, Elacridar). Cells are treated with antiviral candidates that are serially diluted, following infection, cells are fixed. EC50 is reported via analysis of immunofluorescence staining. The assay has been performed by Icahn School of Medicine at Mount Sinai.; assay type: organism-based, Chlorocebus sabaeus, VeroE6/TMPRSS2; conditions: for EC90: P-gp concentration 2 uM, P-gp inhibitor Elacidar

Work on O=C(Nc1cnc2c(c1)CNCC2)c1cc(Cl)cc2[nH]ncc12 yielded an EC50 (Zika virus; Zika virus, VeroE6/TMPRSS2) of 45.4 µM, an EC90 (Zika virus; Zika virus, VeroE6/TMPRSS2, Baseline response 0 %, Hill slope -15.177, Maximum measured 54.077 %, Maximum response 44.083 %, Minimum measured 8.284 %, P-gp concentration 2 uM, R squared 0.548, P-gp inhibitor Elacidar) greater than 50 µM and an EC50 (dengue virus type 2; Dengue virus, VeroE6/TMPRSS2) greater than 50 µM. The EC90 (dengue virus type 2; Dengue virus, VeroE6/TMPRSS2, Maximum measured 104.893 %, Minimum measured 59 %) was greater than 50 µM.
In the case of N#Cc1cc(Cl)cc(C(=O)Nc2ccc3c(c2)CNC3)c1, the EC50 (Zika virus; Zika virus, VeroE6/TMPRSS2) is reported as 47.2 µM, the EC90 (Zika virus; Zika virus, VeroE6/TMPRSS2, Baseline response 0 %, Hill slope -12.375, Maximum measured 129.405 %, Maximum response 100 %, Minimum measured 33.162 %, P-gp concentration 2 uM, R squared 0.602, P-gp inhibitor Elacidar) is reported as greater than 50 µM and the EC50 (dengue virus type 2; Dengue virus, VeroE6/TMPRSS2) is reported as greater than 50 µM. It also gave an EC90 (dengue virus type 2; Dengue virus, VeroE6/TMPRSS2, Maximum measured 57.395 %, Minimum measured 32.413 %) greater than 50 µM.
C[C@@H](N)c1cccc(NC(=O)[C@H]2[C@H]3CCCCC[C@H]3[C@H]2NC(=O)OCc2ccccc2)c1 showed an EC50 (Zika virus; Zika virus, VeroE6/TMPRSS2) greater than 5.56 µM, an EC90 (Zika virus; Zika virus, VeroE6/TMPRSS2, Maximum measured 138.527 %, Minimum measured 84.272 %, P-gp concentration 2 uM, P-gp inhibitor Elacidar) greater than 5.56 µM and an EC50 (dengue virus type 2; Dengue virus, VeroE6/TMPRSS2) greater than 5.56 µM. The EC90 (dengue virus type 2; Dengue virus, VeroE6/TMPRSS2, Baseline response 0 %, Hill slope -0.267, Maximum measured 104.495 %, Maximum response 100 %, Minimum measured 46.505 %, R squared 0.299) was greater than 5.56 µM.
O=C(Nc1ccc2c(c1)CNC2)c1cc(Cl)ccc1SC1CCCC1 was tested, and the EC50 (Zika virus; Zika virus, VeroE6/TMPRSS2) was greater than 16.7 µM, the EC90 (Zika virus; Zika virus, VeroE6/TMPRSS2, Maximum measured 121.888 %, Minimum measured 81.617 %, P-gp concentration 2 uM, P-gp inhibitor Elacidar) was greater than 16.7 µM and the EC50 (dengue virus type 2; Dengue virus, VeroE6/TMPRSS2) was greater than 16.7 µM. It also gave an EC90 (dengue virus type 2; Dengue virus, VeroE6/TMPRSS2, Maximum measured 58.655 %, Minimum measured 40.644 %) greater than 16.7 µM.
CC[C@H](Cc1nnn[nH]1)c1ccc(NC(=O)c2cc(Cl)cc(-n3cccc3)c2)cc1 showed an EC50 (Zika virus; Zika virus, VeroE6/TMPRSS2) of 46.8 µM, an EC90 (Zika virus; Zika virus, VeroE6/TMPRSS2, Baseline response 0 %, Hill slope -17.276, Maximum measured 183.537 %, Maximum response 154.104 %, Minimum measured 37.545 %, P-gp concentration 2 uM, R squared 0.817, P-gp inhibitor Elacidar) greater than 50 µM and an EC50 (dengue virus type 2; Dengue virus, VeroE6/TMPRSS2) of 42.5 µM. The EC90 (dengue virus type 2; Dengue virus, VeroE6/TMPRSS2, Baseline response 0 %, Hill slope -23.366, Maximum measured 115.315 %, Maximum response 100 %, Minimum measured 2.218 %, R squared 0.505) was 46.7 µM.
NCCCc1ccnc(NC(=O)c2cc(Cl)cc(NC(=O)OCc3ccccc3)c2)c1 gave an EC50 (Zika virus; Zika virus, VeroE6/TMPRSS2) of 0.532 µM, an EC90 (Zika virus; Zika virus, VeroE6/TMPRSS2) of 3.24 µM and an EC50 (dengue virus type 2; Dengue virus, VeroE6/TMPRSS2) greater than 5.56 µM. It also gave an EC90 (dengue virus type 2; Dengue virus, VeroE6/TMPRSS2, Baseline response 0 %, Hill slope -1.225, Maximum measured 82.874 %, Maximum response 60 %, Minimum measured 33.609 %, R squared 0.331) greater than 5.56 µM.
O=C(Nc1cc(Cl)cc(C(=O)Nc2cc(Br)cc(-c3nnn[nH]3)c2)c1)OCc1ccccc1 was tested, and the EC50 (Zika virus; Zika virus, VeroE6/TMPRSS2) was 41.4 µM, the EC90 (Zika virus; Zika virus, VeroE6/TMPRSS2, Baseline response 0 %, Hill slope -35.305, Maximum measured 180.813 %, Maximum response 100 %, Minimum measured 13.985 %, P-gp concentration 2 uM, R squared 0.137, P-gp inhibitor Elacidar) was 44.1 µM and the EC50 (dengue virus type 2; Dengue virus, VeroE6/TMPRSS2) was 11.4 µM. The EC90 (dengue virus type 2; Dengue virus, VeroE6/TMPRSS2, Baseline response 0 %, Hill slope -3.68, Maximum measured 234.045 %, Maximum response 186.52 %, Minimum measured 36.837 %, R squared 0.67) was greater than 16.7 µM.
For NCc1cccc(NC(=O)[C@H]2[C@H]3CCCCC[C@H]3[C@H]2NC(=O)OCc2ccccc2)c1, the EC50 (Zika virus; Zika virus, VeroE6/TMPRSS2) was 1.43 µM, the EC90 (Zika virus; Zika virus, VeroE6/TMPRSS2) was 9.76 µM and the EC50 (dengue virus type 2; Dengue virus, VeroE6/TMPRSS2) was greater than 5.56 µM. It also gave an EC90 (dengue virus type 2; Dengue virus, VeroE6/TMPRSS2, Baseline response 0 %, Hill slope -0.21, Maximum measured 66.083 %, Maximum response 100 %, Minimum measured 25.848 %, R squared 0.326) greater than 5.56 µM.
c1ccc2c(CN3CCC(c4cscn4)CC3)c[nH]c2c1 was tested, and the EC90 (Zika virus; Zika virus, VeroE6/TMPRSS2, Maximum measured 113.51 %, Minimum measured 55.055 %, P-gp concentration 2 uM, P-gp inhibitor Elacidar) was greater than 10 µM, the EC90 (Zika virus; Zika virus, VeroE6/TMPRSS2, Maximum measured 115.408 %, Minimum measured 68.286 %, P-gp concentration 2 uM, P-gp inhibitor Elacidar) was greater than 50 µM and the EC50 (Zika virus; veroe6/tmprss2) was greater than 50 µM. The EC90 (dengue virus type 2; Baseline response 0 %, Hill slope -0.247, Maximum measured 100.251 %, Maximum response 100 %, Minimum measured 62.836 %, R squared 0.15) was greater than 10 µM, the EC90 (dengue virus type 2; Baseline response 0 %, Hill slope -0.248, Maximum measured 160.986 %, Maximum response 100 %, Minimum measured 66.91 %, R squared 0.115) was greater than 50 µM and the EC50 (dengue virus type 2; veroe6/tmprss2) was greater than 50 µM.
Cc1ccc(S(=O)(=O)CNC(=O)[C@H](Nc2ccc3c(c2)CNC3)c2cc(Cl)cc3[nH]ncc23)cc1 gave an EC50 (Zika virus; Zika virus, VeroE6/TMPRSS2) greater than 5.56 µM, an EC90 (Zika virus; Zika virus, VeroE6/TMPRSS2, Baseline response 0 %, Hill slope -0.504, Maximum measured 105.322 %, Maximum response 100 %, Minimum measured 58.532 %, P-gp concentration 2 uM, R squared 0.723, P-gp inhibitor Elacidar) greater than 5.56 µM and an EC50 (dengue virus type 2; Dengue virus, VeroE6/TMPRSS2) greater than 50 µM. For the same compound, the EC90 (dengue virus type 2; Dengue virus, VeroE6/TMPRSS2, Baseline response 0 %, Hill slope 0.271, Maximum measured 147.697 %, Maximum response 100 %, Minimum measured 56.785 %, R squared 0.117) was greater than 50 µM.
